From ChEMBL document CHEMBL4364276, “Discovery of 4-phenyl-2H-benzo[b][1,4]oxazin-3(4H)-one derivatives as potent and orally active PI3K/mTOR dual inhibitors” (Eur J Med Chem, 2019)

Tests used:
L02 = experiment: Cytotoxicity against human LO2 cells assessed as reduction in cell viability at 0.625 to 20 uM incubated for 72 hrs by MTT assay; assay type: cell-based; conditions: l02, 72 h
A-375 = experiment: Antiproliferative activity against human A375 cells assessed as reduction in cell viability incubated for 72 hrs by MTT assay; assay type: functional, cell-based; conditions: A-375, 72 h
[1] = molecular target: Activated CDC42 kinase 1 (Homo sapiens) (UniProt Q07912); experiment: Inhibition of human ACK1 at 100 nM using EAIYAAPFAKKK as substrate by [gamma-33P]-ATP assay
[2] = molecular target: TGF-beta receptor type-1 (Homo sapiens) (UniProt P36897); experiment: Inhibition of human ALK5 at 100 nM using casein as substrate by [gamma-33P]-ATP assay
[3] = molecular target: Aurora kinase A (Homo sapiens) (UniProt O14965); experiment: Inhibition of human Aurora A at 100 nM using [H-LRRASLG] as substrate by [gamma-33P]-ATP assay
[4] = molecular target: Aurora kinase B (Homo sapiens) (UniProt Q96GD4); experiment: Inhibition of human Aurora B at 100 nM using [H-LRRASLG] as substrate by [gamma-33P]-ATP assay
[5] = molecular target: Serine/threonine-protein kinase BRSK2 (Homo sapiens) (UniProt Q8IWQ3); experiment: Inhibition of human BRSK2 at 100 nM using KKLNRTLSFAEPG as substrate by [gamma-33P]-ATP assay
[6] = molecular target: CDK9/cyclin T1 (Homo sapiens) (UniProt O60563+P50750); experiment: Inhibition of human CDK9/cyclin-T1 at 100 nM using KTFCGTPEYLAPEVRREPRILSEEEQEMFRDFDYIADWC as substrate by [gamma-33P]-ATP assay; assay type: protein-complex assay
[7] = molecular target: Casein kinase I isoform alpha-like (Homo sapiens) (UniProt Q8N752); experiment: Inhibition of human CK1a1L at 100 nM using KRRRAL[pS]VASLPGL as substrate by [gamma-33P]-ATP assay
[8] = molecular target: Casein kinase II subunit alpha' (Homo sapiens) (UniProt P19784); experiment: Inhibition of human CK2A2 at 100 nM using RRRDDDSDDD as substrate by [gamma-33P]-ATP assay
[9] = molecular target: Ephrin type-A receptor 2 (Homo sapiens) (UniProt P29317); experiment: Inhibition of human EPHA2 at 100 nM using poly[Glu:Tyr] (4:1) as substrate by [gamma-33P]-ATP assay
[10] = molecular target: Ephrin type-A receptor 6 (Homo sapiens) (UniProt Q9UF33); experiment: Inhibition of human EPHA6 at 100 nM using poly[Glu:Tyr] (4:1) as substrate by [gamma-33P]-ATP assay
[11] = molecular target: Ephrin type-B receptor 4 (Homo sapiens) (UniProt P54760); experiment: Inhibition of human EPHB4 at 100 nM using poly[Glu:Tyr] (4:1) as substrate by [gamma-33P]-ATP assay
[12] = molecular target: Receptor tyrosine-protein kinase erbB-2 (Homo sapiens) (UniProt P04626); experiment: Inhibition of human ERBB2 at 100 nM using poly[Glu:Tyr] (4:1) as substrate by [gamma-33P]-ATP assay
[13] = molecular target: Tyrosine-protein kinase Fgr (Homo sapiens) (UniProt P09769); experiment: Inhibition of human FGR at 100 nM using poly[Glu:Tyr] (4:1) as substrate by [gamma-33P]-ATP assay
[14] = molecular target: Tyrosine-protein kinase Fyn (Homo sapiens) (UniProt P06241); experiment: Inhibition of human FYN at 100 nM using poly[Glu:Tyr] (4:1) as substrate by [gamma-33P]-ATP assay
[15] = molecular target: Insulin receptor (Homo sapiens) (UniProt P06213); experiment: Inhibition of human IR at 100 nM using poly[Glu:Tyr] (4:1) as substrate by [gamma-33P]-ATP assay
[16] = molecular target: Tyrosine-protein kinase JAK1 (Homo sapiens) (UniProt P23458); experiment: Inhibition of human JAK1 at 100 nM using poly[Glu:Tyr] (4:1) as substrate by [gamma-33P]-ATP assay
[17] = molecular target: MAP/microtubule affinity-regulating kinase 3 (Homo sapiens) (UniProt P27448); experiment: Inhibition of human MARK3 at 100 nM using KKKVSRSGLYRSPSMPENLNRPR as substrate by [gamma-33P]-ATP assay
[18] = molecular target: Myosin light chain kinase 2, skeletal/cardiac muscle (Homo sapiens) (UniProt Q9H1R3); experiment: Inhibition of human MLCK2 at 100 nM using KKLNRTLSFAEPG as substrate by [gamma-33P]-ATP assay
[19] = molecular target: Serine/threonine-protein kinase 4 (Homo sapiens) (UniProt Q13043); experiment: Inhibition of human MST1 at 100 nM using KKSRGDYMTMQIG as substrate by [gamma-33P]-ATP assay
[20] = molecular target: Serine/threonine-protein kinase Nek11 (Homo sapiens) (UniProt Q8NG66); experiment: Inhibition of human NEK11 at 100 nM using MBP as substrate by [gamma-33P]-ATP assay
[21] = molecular target: Serine/threonine-protein kinase N2 (Homo sapiens) (UniProt Q16513); experiment: Inhibition of human PKN2 at 100 nM using KKLNRTLSVA as substrate by [gamma-33P]-ATP assay
[22] = molecular target: Serine/threonine-protein kinase Sgk3 (Homo sapiens) (UniProt Q96BR1); experiment: Inhibition of human SGK3 at 100 nM using GRPRTSSFAEG as substrate by [gamma-33P]-ATP assay
[23] = molecular target: Serine/threonine-protein kinase 16 (Homo sapiens) (UniProt O75716); experiment: Inhibition of human STK16 at 100 nM using MBP as substrate by [gamma-33P]-ATP assay
[24] = molecular target: Serine/threonine-protein kinase 38 (Homo sapiens) (UniProt Q15208); experiment: Inhibition of human STK38 at 100 nM using KKRNRRLSVA as substrate by [gamma-33P]-ATP assay
[25] = molecular target: Serine/threonine-protein kinase 38-like (Homo sapiens) (UniProt Q9Y2H1); experiment: Inhibition of human STK38L at 100 nM using KKRNRRLSVA as substrate by [gamma-33P]-ATP assay
[26] = molecular target: Serine/threonine-protein kinase TAO2 (Homo sapiens) (UniProt Q9UL54); experiment: Inhibition of human TAOK2 at 100 nM using MBP as substrate by [gamma-33P]-ATP assay
[27] = molecular target: Mitogen-activated protein kinase kinase kinase 19 (Homo sapiens) (UniProt Q56UN5); experiment: Inhibition of human YSK4 at 100 nM using MBP as substrate by [gamma-33P]-ATP assay
HeLa = experiment: Inhibition of colony formation in human HeLa cells at 1.25 uM incubated for 2 weeks crystal violet staining based assay; assay type: functional; conditions: 336 h

Sequence of Serine/threonine-protein kinase 16 (Homo sapiens) (O75716 whole entry): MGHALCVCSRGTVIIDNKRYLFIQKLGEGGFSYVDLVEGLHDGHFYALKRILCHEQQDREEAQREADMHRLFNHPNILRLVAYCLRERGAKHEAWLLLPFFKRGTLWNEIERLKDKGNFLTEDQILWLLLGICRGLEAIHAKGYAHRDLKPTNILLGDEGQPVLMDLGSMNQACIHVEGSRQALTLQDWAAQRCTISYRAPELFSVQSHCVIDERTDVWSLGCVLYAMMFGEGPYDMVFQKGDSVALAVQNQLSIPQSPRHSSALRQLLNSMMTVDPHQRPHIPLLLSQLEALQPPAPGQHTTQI
Sequence of TGF-beta receptor type-1 (Homo sapiens) (P36897 whole entry): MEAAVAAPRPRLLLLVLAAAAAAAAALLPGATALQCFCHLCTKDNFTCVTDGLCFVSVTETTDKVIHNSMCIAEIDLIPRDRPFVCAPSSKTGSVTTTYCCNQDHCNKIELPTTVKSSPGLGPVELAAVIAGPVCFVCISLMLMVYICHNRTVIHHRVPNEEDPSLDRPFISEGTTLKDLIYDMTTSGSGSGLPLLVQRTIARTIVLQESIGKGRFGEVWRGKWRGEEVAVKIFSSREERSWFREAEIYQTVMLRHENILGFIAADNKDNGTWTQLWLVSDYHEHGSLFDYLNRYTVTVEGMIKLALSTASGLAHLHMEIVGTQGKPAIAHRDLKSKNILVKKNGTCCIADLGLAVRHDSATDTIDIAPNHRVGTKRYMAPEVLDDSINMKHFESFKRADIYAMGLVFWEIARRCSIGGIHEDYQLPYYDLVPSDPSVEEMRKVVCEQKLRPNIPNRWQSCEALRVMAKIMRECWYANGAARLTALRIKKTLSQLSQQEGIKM
Sequence of Mitogen-activated protein kinase kinase kinase 19 (Homo sapiens) (Q56UN5 whole entry): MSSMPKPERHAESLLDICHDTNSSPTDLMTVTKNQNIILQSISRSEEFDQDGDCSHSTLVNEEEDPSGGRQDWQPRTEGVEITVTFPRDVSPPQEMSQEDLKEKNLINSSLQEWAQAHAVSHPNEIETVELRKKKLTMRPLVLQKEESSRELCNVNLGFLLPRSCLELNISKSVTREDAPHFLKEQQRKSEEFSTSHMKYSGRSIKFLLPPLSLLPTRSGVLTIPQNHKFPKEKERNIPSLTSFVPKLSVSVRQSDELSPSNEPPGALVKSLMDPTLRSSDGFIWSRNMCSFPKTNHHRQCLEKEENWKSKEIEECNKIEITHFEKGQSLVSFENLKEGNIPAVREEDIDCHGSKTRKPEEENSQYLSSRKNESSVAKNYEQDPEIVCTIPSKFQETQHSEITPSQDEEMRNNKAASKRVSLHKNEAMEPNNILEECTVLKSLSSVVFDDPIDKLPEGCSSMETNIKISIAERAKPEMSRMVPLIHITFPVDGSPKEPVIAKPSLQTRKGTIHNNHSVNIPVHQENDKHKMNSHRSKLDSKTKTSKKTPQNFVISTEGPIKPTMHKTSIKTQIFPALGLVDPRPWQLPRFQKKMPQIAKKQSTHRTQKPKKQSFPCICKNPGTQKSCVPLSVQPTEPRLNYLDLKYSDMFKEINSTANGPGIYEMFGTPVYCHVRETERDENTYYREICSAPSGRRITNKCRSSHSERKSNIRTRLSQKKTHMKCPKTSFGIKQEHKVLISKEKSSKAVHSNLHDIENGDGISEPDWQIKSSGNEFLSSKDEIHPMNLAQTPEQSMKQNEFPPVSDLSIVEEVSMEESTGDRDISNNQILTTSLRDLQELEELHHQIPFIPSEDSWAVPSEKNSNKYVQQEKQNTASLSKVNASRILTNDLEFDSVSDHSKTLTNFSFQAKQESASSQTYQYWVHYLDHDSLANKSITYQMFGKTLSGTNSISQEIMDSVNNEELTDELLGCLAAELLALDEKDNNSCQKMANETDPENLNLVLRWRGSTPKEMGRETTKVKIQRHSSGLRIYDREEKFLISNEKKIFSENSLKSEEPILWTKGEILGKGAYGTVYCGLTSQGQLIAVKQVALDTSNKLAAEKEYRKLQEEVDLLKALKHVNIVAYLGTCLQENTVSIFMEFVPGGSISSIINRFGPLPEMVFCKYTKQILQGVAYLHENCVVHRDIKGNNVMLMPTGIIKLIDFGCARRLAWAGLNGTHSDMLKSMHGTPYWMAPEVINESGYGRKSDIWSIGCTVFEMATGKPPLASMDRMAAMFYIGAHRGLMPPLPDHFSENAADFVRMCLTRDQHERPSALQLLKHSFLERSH
Sequence of Casein kinase II subunit alpha' (Homo sapiens) (P19784 whole entry, looked up): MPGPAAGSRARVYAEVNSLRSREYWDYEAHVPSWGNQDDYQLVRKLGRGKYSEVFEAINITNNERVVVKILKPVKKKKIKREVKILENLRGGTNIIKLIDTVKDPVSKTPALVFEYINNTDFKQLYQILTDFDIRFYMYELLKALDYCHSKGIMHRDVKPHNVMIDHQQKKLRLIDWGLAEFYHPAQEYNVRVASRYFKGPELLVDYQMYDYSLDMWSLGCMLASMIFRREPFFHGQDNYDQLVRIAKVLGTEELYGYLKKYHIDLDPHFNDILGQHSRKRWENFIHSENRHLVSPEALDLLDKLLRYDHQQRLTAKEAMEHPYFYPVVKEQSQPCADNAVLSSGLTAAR
Sequence of Ephrin type-A receptor 6 (Homo sapiens) (Q9UF33 whole entry): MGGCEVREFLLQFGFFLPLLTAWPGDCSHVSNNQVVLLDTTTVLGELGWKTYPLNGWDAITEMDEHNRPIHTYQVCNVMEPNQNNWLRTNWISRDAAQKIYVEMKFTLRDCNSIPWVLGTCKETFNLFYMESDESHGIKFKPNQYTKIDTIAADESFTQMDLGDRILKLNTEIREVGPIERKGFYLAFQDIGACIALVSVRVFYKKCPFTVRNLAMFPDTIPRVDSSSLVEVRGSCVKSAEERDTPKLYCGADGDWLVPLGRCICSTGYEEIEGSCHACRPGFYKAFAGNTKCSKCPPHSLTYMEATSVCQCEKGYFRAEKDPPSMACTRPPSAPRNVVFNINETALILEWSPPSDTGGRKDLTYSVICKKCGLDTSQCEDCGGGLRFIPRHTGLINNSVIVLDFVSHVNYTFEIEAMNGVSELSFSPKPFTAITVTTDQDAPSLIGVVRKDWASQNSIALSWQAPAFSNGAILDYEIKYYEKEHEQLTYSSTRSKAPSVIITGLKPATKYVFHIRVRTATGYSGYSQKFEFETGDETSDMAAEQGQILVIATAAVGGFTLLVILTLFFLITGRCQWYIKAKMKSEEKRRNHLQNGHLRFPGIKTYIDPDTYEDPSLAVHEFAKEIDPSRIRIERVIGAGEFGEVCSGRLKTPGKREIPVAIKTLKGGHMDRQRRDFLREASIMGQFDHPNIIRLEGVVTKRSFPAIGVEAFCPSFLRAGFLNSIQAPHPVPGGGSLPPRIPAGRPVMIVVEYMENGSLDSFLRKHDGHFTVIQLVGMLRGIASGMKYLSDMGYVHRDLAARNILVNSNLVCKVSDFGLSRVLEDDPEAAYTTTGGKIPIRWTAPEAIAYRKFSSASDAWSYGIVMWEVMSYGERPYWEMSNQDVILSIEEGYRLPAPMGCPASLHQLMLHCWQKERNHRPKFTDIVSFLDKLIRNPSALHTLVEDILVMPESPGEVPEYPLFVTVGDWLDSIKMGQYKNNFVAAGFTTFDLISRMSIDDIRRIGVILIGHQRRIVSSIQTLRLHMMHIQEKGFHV
Sequence of Serine/threonine-protein kinase Sgk3 (Homo sapiens) (Q96BR1 whole entry): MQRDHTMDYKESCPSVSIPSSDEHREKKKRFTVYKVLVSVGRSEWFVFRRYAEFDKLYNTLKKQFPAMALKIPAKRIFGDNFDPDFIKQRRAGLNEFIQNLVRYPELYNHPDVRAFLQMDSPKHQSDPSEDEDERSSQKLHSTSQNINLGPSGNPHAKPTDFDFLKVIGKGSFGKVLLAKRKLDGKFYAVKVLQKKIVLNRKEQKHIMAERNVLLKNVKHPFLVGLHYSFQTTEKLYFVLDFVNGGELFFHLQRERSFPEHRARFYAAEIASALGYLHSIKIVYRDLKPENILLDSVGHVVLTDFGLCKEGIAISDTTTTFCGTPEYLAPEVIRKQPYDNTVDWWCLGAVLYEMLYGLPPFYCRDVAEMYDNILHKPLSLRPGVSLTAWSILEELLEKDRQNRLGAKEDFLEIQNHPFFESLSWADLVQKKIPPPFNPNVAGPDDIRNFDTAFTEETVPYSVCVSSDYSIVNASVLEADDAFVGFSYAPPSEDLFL
Sequence of Tyrosine-protein kinase Fyn (Homo sapiens) (P06241 2-537 limits assumed): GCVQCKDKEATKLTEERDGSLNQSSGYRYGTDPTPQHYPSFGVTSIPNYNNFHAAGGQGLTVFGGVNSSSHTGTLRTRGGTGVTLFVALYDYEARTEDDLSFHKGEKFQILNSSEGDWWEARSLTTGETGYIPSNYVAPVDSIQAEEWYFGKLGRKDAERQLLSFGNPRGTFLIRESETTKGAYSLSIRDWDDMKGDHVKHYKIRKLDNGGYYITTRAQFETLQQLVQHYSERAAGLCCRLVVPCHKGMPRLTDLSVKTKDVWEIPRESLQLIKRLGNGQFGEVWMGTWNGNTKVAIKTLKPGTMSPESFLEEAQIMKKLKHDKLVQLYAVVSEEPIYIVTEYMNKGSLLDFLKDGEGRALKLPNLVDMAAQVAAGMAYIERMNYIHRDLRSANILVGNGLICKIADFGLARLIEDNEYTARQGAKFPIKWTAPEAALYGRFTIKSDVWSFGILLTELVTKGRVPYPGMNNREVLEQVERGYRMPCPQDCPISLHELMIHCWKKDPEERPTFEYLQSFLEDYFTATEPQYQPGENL
Sequence of Serine/threonine-protein kinase 38 (Homo sapiens) (Q15208 2-465 limits assumed): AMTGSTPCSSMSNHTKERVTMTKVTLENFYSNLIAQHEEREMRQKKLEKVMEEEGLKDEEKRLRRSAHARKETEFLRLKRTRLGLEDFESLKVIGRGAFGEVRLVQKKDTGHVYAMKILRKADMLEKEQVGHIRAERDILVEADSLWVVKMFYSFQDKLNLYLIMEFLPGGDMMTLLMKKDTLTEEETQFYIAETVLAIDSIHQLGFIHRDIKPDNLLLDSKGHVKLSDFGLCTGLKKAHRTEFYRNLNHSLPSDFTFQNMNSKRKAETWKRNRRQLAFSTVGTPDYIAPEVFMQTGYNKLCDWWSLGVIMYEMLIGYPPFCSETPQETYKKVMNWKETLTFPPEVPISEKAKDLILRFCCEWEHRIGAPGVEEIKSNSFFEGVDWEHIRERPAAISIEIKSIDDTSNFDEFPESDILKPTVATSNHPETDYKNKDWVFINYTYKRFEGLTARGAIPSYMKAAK

COc1ccc(N2C(=O)COc3ccc(-c4cnc(OC)c(NS(=O)(=O)c5ccc(F)cc5)c4)cc32)cc1
Activity (L02): Non-Toxic
IC50 (A-375): 18.4 µM
inhibition [1]: 10.4%
inhibition [2]: 0.84%
inhibition [3]: 3.17%
inhibition [4]: -2.21%
inhibition [5]: -1.64%
inhibition [6]: 16.8%
inhibition [7]: -6.28%
inhibition [8]: 19.8%
inhibition [9]: 19.2%
inhibition [10]: -9.63%
inhibition [11]: 15.9%
inhibition [12]: 3.37%
inhibition [13]: 5.02%
inhibition [14]: -0.86%
inhibition [15]: 6.82%
inhibition [16]: 26.8%
inhibition [17]: -2.27%
inhibition [18]: 0.61%
inhibition [19]: 11.4%
inhibition [20]: 17.5%
inhibition [21]: 6.6%
inhibition [22]: 3.8%
inhibition [23]: -2.3%
inhibition [24]: 4.17%
inhibition [25]: -2.59%
inhibition [26]: -3.9%
inhibition [27]: 3.44%
inhibition at 1.25 µM (HeLa): > 50%
